# Measured values published in publication PMC3142157, “Sensitive and Specific Fluorescent Probes for Functional Analysis of the Three Major Types of Mammalian ABC Transporters” (PLoS ONE, 2011).
# Key:
# CHO K1 cells = assay: Dye uptake flow cytometry MDR assay (MAF / D-values), CHO K1 cells; type: cell-based, hamster; settings: for D-values Post Inhibitor Treatment (compared to uninhibited cells), CsA / D-values Post Inhibitor Treatment (compared to uninhibited cells), FTC / D-values Post Inhibitor Treatment (compared to uninhibited cells), MK-571 / D-values Post Inhibitor Treatment (compared to uninhibited cells), Verapamil: CHO K1; for MAF value, Fumitremorgin C / MAF value, Probenecid / MAF value, Verapamil: CHO K1 cells, dye uptake protocol; for MAF value, Fumitremorgin C: probe with vs without fumitremorgin C; for MAF value, Probenecid: probe with vs without probenecid; for MAF value, Verapamil: probe with vs without verapamil
# Procedure: (§1) Detailed protocol for the MDR assay is available in the Instruction Manual for eFluxx-ID® Green or Gold Multi-Drug Resistance Assay Kit (ENZO Life Sciences, Inc., Farmingdale, NY). Briefly, on the day of the assay, cells were collected, washed with PBS and incubated with or without MDR inhibitors in the presence of the eFluxx-ID® Green or Gold probes for 30 min at 37°C and analyzed immediately by flow cytometry. eFluxx-ID® Green or Gold probes are novel xanthene-based small molecule dyes developed for the detection of MDR activity in living cells. In order to exclude dead cells in the analyses, propidium iodide (PI) or 7-actinaminomycin D (7-AAD) solution was added to the cells during the last 5 min of incubation in some experiments.
# (§2) To develop a minimal step assay procedure for the dye uptake protocol, three modifications of the protocol were investigated. One set of the cells was treated according to a general “no-wash” protocol (see Instruction Manual for the kit). In the second set of tubes, the reaction was stopped by rapid centrifugation (1 min) at relatively low speed (200×g). After washing with ice-cold PBS and discarding the supernatant, cells were re-suspended in 0.5 ml of ice-cold medium and kept on ice until flow cytometry analysis was performed. The third set of cells was simply spun down (1 min, 200×g) to remove the excess probe, resuspended in ice-cold medium and kept on ice until flow cytometry analysis was performed. eFluxx-ID® Green dye (ex/em 490/514 nm) fluorescence intensity was measured in the FL1/FITC (530/30 filter) channel, and eFluxx-ID® Gold dye (ex/em 530/555 nm) fluorescence intensity was monitored in the FL2/PE (585/42 filter) channel.
# (§3) Experiments were performed using a FACS Calibur benchtop flow cytometer (BD Biosciences, San Jose, CA) equipped with a blue (488 nm) laser, and the signals were registered in the FITC (530/30 filter), PE (585/42 filter) and PerCP (670 LP filter) channels. eFluxx-ID® Green dye fluorescence was measured in the FL1/FITC channel, and eFluxx-ID® Gold dye fluorescence, in the FL2/PE channel. Data analysis was performed using FlowJo 8.8.2 software (Tree Star, Inc., Ashland, OR).
# (§4) All of the experiments were performed at least three times. Results were expressed as mean ± S.E. Statistical comparisons were made using an unpaired two-tailed Student's t-test. A P value of <0.05 was considered significant. Flow cytometry data were analyzed by comparison of median fluorescence, by using Kolmogorov-Smirnov statistics (D-value) or by calculating MDR Activity Factor (MAF) values using the following formula: MAF = 100*((MFIinh−MFI0)/MFIinh), wherein MFIinh and MFI0 are the mean fluorescence intensity values measured in the presence and absence of inhibitor [7].
# A549 cells = assay: Dye uptake flow cytometry MDR assay (MAF / D-values), A549 cells; type: cell-based, human; settings: dye uptake protocol; for MAF value, Fumitremorgin C: probe with vs without fumitremorgin C; for MAF value, Probenecid: probe with vs without probenecid; for MAF value, Verapamil: probe with vs without verapamil
# Procedure: as §1, §2, §3, §4
# HeLa cells = assay: Dye uptake flow cytometry MDR assay (MAF), HeLa cells; type: cell-based, human; settings: dye uptake protocol; for MAF value, Fumitremorgin C: probe with vs without fumitremorgin C; for MAF value, Probenecid: probe with vs without probenecid; for MAF value, Verapamil: probe with vs without verapamil
# Procedure: as §1, §2, §3, §4
# HepG2 cells = assay: Dye uptake flow cytometry MDR assay (MAF), HepG2 cells; type: cell-based, human; settings: for MAF value, CsA: probe with vs without CsA; for MAF value, CsA / MAF value, Nov / MAF value, Ver: mean ± SEM; for MAF value, MK571: probe with vs without MK571, mean ± SEM; for MAF value, Nov: probe with vs without Nov; for MAF value, Ver: probe with vs without Ver
# Procedure: (§5) Detailed protocol for the MDR assay is available in the Instruction Manual for eFluxx-ID® Green or Gold Multi-Drug Resistance Assay Kit (ENZO Life Sciences, Inc., Farmingdale, NY). […] In order to exclude dead cells in the analyses, propidium iodide (PI) or 7-actinaminomycin D (7-AAD) solution was added to the cells during the last 5 min of incubation in some experiments. Experiments were performed using a FACS Calibur benchtop flow cytometer (BD Biosciences, San Jose, CA) equipped with a blue (488 nm) laser, and the signals were registered in the FITC (530/30 filter), PE (585/42 filter) and PerCP (670 LP filter) channels. eFluxx-ID® Green dye fluorescence was measured in the FL1/FITC channel, and eFluxx-ID® Gold dye fluorescence, in the FL2/PE channel. Data analysis was performed using FlowJo 8.8.2 software (Tree Star, Inc., Ashland, OR). All of the experiments were performed at least three times. Results were expressed as mean ± S.E. Statistical comparisons were made using an unpaired two-tailed Student's t-test. […] Additionally, HCT-8 cell line reported to overexpress both MDR1 and MRP transporters, [21] was tested. HCT-8, HCT-15, HepG2, HL-60 and HL-60/MX1 cells were grown on tissue culture dishes and on the day of assay were incubated with eFluxx-ID® Green and Gold probes with and without inhibitors according to the described dye uptake protocol (Materials and Methods) and analyzed by flow cytometry.
# HCT-8 cells = assay: Dye uptake flow cytometry MDR assay (MAF), HCT-8 cells; type: cell-based, human; settings: for MAF value, CsA: probe with vs without CsA; for MAF value, CsA / MAF value, Nov / MAF value, Ver: mean ± SEM; for MAF value, MK571: probe with vs without MK571, mean ± SEM; for MAF value, Nov: probe with vs without Nov; for MAF value, Ver: probe with vs without Ver
# Procedure: as §5
# HCT-15 cells = assay: Dye uptake flow cytometry MDR assay (MAF), HCT-15 cells; type: cell-based, human; settings: for MAF value, CsA: probe with vs without CsA; for MAF value, CsA / MAF value, Nov / MAF value, Ver: mean ± SEM; for MAF value, MK571: probe with vs without MK571, mean ± SEM; for MAF value, Nov: probe with vs without Nov; for MAF value, Ver: probe with vs without Ver
# Procedure: as §5
# HL-60 cells = assay: Dye uptake flow cytometry MDR assay (MAF), HL-60 cells; type: cell-based, human; settings: for MAF value, CsA: probe with vs without CsA; for MAF value, CsA / MAF value, Nov / MAF value, Ver: mean ± SEM; for MAF value, MK571: probe with vs without MK571, mean ± SEM; for MAF value, Nov: probe with vs without Nov; for MAF value, Ver: probe with vs without Ver
# Procedure: as §5
# HL-60/MX1 cells = assay: Dye uptake flow cytometry MDR assay (MAF), HL-60/MX1 cells; type: cell-based, human; settings: for MAF value, CsA: probe with vs without CsA; for MAF value, CsA / MAF value, Nov / MAF value, Ver: mean ± SEM; for MAF value, MK571: probe with vs without MK571, mean ± SEM; for MAF value, Nov: probe with vs without Nov; for MAF value, Ver: probe with vs without Ver
# Procedure: as §5
# [1] = dual probe treatment eFluxx-ID Gold + CMFDA
# [2] = triple probe treatment CMFDA + eFluxx-ID Gold + Pheophorbide A
# [3] = dual probe treatment eFluxx-ID Gold + DiOC2(3)
# [4] = triple probe treatment DiOC2(3) + eFluxx-ID Gold + Pheophorbide A
# [5] = dual probe treatment eFluxx-ID Gold + Pheophorbide A
# [6] = dual probe treatment eFluxx-ID Green + Pheophorbide A
Molecule,"D-values Post Inhibitor Treatment (compared to uninhibited cells), CsA (CHO K1 cells; [2])","D-values Post Inhibitor Treatment (compared to uninhibited cells), FTC (CHO K1 cells; [2])","D-values Post Inhibitor Treatment (compared to uninhibited cells), MK-571 (CHO K1 cells; [2])","D-values Post Inhibitor Treatment (compared to uninhibited cells), Verapamil (CHO K1 cells; [2])","MAF value, Fumitremorgin C (CHO K1 cells)","MAF value, Probenecid (CHO K1 cells)","MAF value, Verapamil (CHO K1 cells)","MAF value, Fumitremorgin C (A549 cells)","MAF value, Probenecid (A549 cells)","MAF value, Verapamil (A549 cells)","MAF value, Fumitremorgin C (HeLa cells)","MAF value, Probenecid (HeLa cells)","MAF value, Verapamil (HeLa cells)","MAF value, CsA (HepG2 cells)","MAF value, MK571 (HepG2 cells)","MAF value, Nov (HepG2 cells)","MAF value, CsA (HCT-8 cells)","MAF value, MK571 (HCT-8 cells)","MAF value, Nov (HCT-8 cells)","MAF value, Ver (HCT-8 cells)",other results
"CC(=O)Oc1ccc2c(c1)Oc1cc(OC(C)=O)ccc1C21OC(=O)c2cc(CCl)ccc21 [CMFDA, chloromethylfluorescein diacetate]",0.47,0.14,0.89,0.10,0,56.9,34.3,20.7,27.1,16.6,11.4,9.0,7.6,50.4±1.3,52.2±3.8,7.0±1.7,43.0±3.2,39.2±3.6,0,21.2±3.2,"D-values Post Inhibitor Treatment (compared to uninhibited cells), CsA (CHO K1 cells; [1]): 0.49; D-values Post Inhibitor Treatment (compared to uninhibited cells), FTC (CHO K1 cells; [1]): 0.06; D-values Post Inhibitor Treatment (compared to uninhibited cells), MK-571 (CHO K1 cells; [1]): 0.91; D-values Post Inhibitor Treatment (compared to uninhibited cells), Verapamil (CHO K1 cells; [1]): 0.1; MAF value, Ver (HepG2 cells): 12.8±1.3"
"CCN1C(=CC=Cc2oc3ccccc3[n+]2CC)Oc2ccccc21.[I-] [DiOC2(3), 3,3′-diethyloxacarbocyanine iodide]",–,–,–,–,0,2.4,86.6,0.9,1.0,4.2,0,0,0,–,–,–,24.7±0.9,9.8±1.2,0,19.1±3.7,"D-values Post Inhibitor Treatment (compared to uninhibited cells), CsA (CHO K1 cells; [3]): 0.94; D-values Post Inhibitor Treatment (compared to uninhibited cells), FTC (CHO K1 cells; [3]): 0.16; D-values Post Inhibitor Treatment (compared to uninhibited cells), MK-571 (CHO K1 cells; [3]): 0.13; D-values Post Inhibitor Treatment (compared to uninhibited cells), Verapamil (CHO K1 cells; [3]): 0.96; D-values Post Inhibitor Treatment (compared to uninhibited cells), CsA (CHO K1 cells; [4]): 0.98; D-values Post Inhibitor Treatment (compared to uninhibited cells), FTC (CHO K1 cells; [4]): 0.11; D-values Post Inhibitor Treatment (compared to uninhibited cells), MK-571 (CHO K1 cells; [4]): 0.13; D-values Post Inhibitor Treatment (compared to uninhibited cells), Verapamil (CHO K1 cells; [4]): 0.98; MAF value, CsA (HCT-15 cells): 71.0±5.0; MAF value, MK571 (HCT-15 cells): 4.3±2.2; MAF value, Nov (HCT-15 cells): 0; MAF value, Ver (HCT-15 cells): 69.3±4.3"
"C=Cc1c(C)c2cc3nc(c4c5[nH]c(cc6nc(cc1[nH]2)C(C)=C6CC)c(C)c5C(=O)[C@@H]4C(=O)OC)[C@@H](CCC(=O)O)[C@@H]3C [Pheophorbide A, pheophorbide A]",0.20,0.27,0.09,0.18,22.3,8.4,0.7,36.0,14.2,4.0,5.8,0.5,0,–,–,–,–,–,–,–,"D-values Post Inhibitor Treatment (compared to uninhibited cells), CsA (CHO K1 cells; [5]): 0.25; D-values Post Inhibitor Treatment (compared to uninhibited cells), FTC (CHO K1 cells; [5]): 0.34; D-values Post Inhibitor Treatment (compared to uninhibited cells), MK-571 (CHO K1 cells; [5]): 0.14; D-values Post Inhibitor Treatment (compared to uninhibited cells), Verapamil (CHO K1 cells; [5]): 0.11; D-values Post Inhibitor Treatment (compared to uninhibited cells), CsA (CHO K1 cells; [6]): 0.25; D-values Post Inhibitor Treatment (compared to uninhibited cells), FTC (CHO K1 cells; [6]): 0.33; D-values Post Inhibitor Treatment (compared to uninhibited cells), MK-571 (CHO K1 cells; [6]): 0.15; D-values Post Inhibitor Treatment (compared to uninhibited cells), Verapamil (CHO K1 cells; [6]): 0.14; D-values Post Inhibitor Treatment (compared to uninhibited cells), CsA (CHO K1 cells; [4]): 0.4; D-values Post Inhibitor Treatment (compared to uninhibited cells), FTC (CHO K1 cells; [4]): 0.41; D-values Post Inhibitor Treatment (compared to uninhibited cells), MK-571 (CHO K1 cells; [4]): 0.13; D-values Post Inhibitor Treatment (compared to uninhibited cells), Verapamil (CHO K1 cells; [4]): 0.17; MAF value, CsA (HL-60 cells): 6.5±1.7; MAF value, MK571 (HL-60 cells): 7.6±1.6; MAF value, Nov (HL-60 cells): 8.5±1.4; MAF value, Ver (HL-60 cells): 6.8±0.6; MAF value, CsA (HL-60/MX1 cells): 22.5±3.0; MAF value, MK571 (HL-60/MX1 cells): 10.2±3.7; MAF value, Nov (HL-60/MX1 cells): 23.4±0.8; MAF value, Ver (HL-60/MX1 cells): 7.6±3.8"
Calcein AM,–,–,–,–,6.4,55.3,63.9,1.3,19.5,28.0,0.2,12.2,13.0,59.0±2.4,40.7±4.5,3.0±0.1,46.5±5.1,31.1±4.7,7.1±0.4,25.9±0.9,"MAF value, CsA (HCT-15 cells): 67.2±2.0; MAF value, MK571 (HCT-15 cells): 13.5±2.9; MAF value, Nov (HCT-15 cells): 4.3±2.2; MAF value, Ver (HCT-15 cells): 62.9±2.6; MAF value, Ver (HepG2 cells): 22.0±2.9; MAF value, CsA (HL-60 cells): 15.2±2.5; MAF value, MK571 (HL-60 cells): 8.0±1.7; MAF value, Nov (HL-60 cells): 8.6±1.5; MAF value, Ver (HL-60 cells): 2.5±1.1; MAF value, CsA (HL-60/MX1 cells): 18.2±2.7; MAF value, MK571 (HL-60/MX1 cells): 10.8±1.8; MAF value, Nov (HL-60/MX1 cells): 5.9±1.2; MAF value, Ver (HL-60/MX1 cells): 1.6±0.3"
